Results from PubChem BioAssay (NCI).
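Assay format: 96-well plates, 48-hour exposure. The concentration for full growth arrest is given as TGI.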

Tests used:
Test in all cases: NCI anticancer screen, dose series, 48 h
[1] = system: SNB-75 CNS
[2] = system: HCT-15 colon
[3] = system: HOP-62 NSCLC
[4] = system: NCI-H226 lung
[5] = system: OVCAR-5 ovarian
[6] = system: SK-MEL-28 melanoma
[7] = system: SNB-19 CNS
[8] = system: NCI-H522 lung
[9] = system: SF-539 CNS
[10] = system: SK-OV-3 ovarian
[11] = system: HL-60(TB) leukemia
[12] = system: HCT-116 colon
[13] = system: HT29 colon
[14] = system: CCRF-CEM leukemia
[15] = system: HOP-92 NSCLC
[16] = system: MALME-3M melanoma
[17] = system: 786-0 renal
[18] = system: LXFL 529 NSCLC
[19] = system: UO-31 renal
[20] = system: RPMI-8226 leukemia
[21] = system: IGROV1 ovarian
[22] = system: SF-295 CNS
[23] = system: ACHN renal
[24] = system: SNB-78 CNS
[25] = system: CAKI-1 renal
[26] = system: NCI-H23 lung
[27] = system: TK-10 renal
[28] = system: M19-MEL melanoma
[29] = system: K-562 leukemia
[30] = system: DMS 114 small cell lung
[31] = system: SN12C renal
[32] = system: OVCAR-3 ovarian
[33] = system: M14 melanoma
[34] = system: SF-268 CNS
[35] = system: SK-MEL-5 melanoma
[36] = system: LOX IMVI melanoma
[37] = system: UACC-62 melanoma
[38] = system: OVCAR-4 ovarian
[39] = system: U251 CNS
[40] = system: SK-MEL-2 melanoma
[41] = system: A498 renal
[42] = system: OVCAR-8 ovarian
[43] = system: KM12 colon
[44] = system: KM20L2 colon
[45] = system: DLD-1 colon
[46] = system: A549 NSCLC
[47] = system: COLO 205 colon
[48] = system: UACC-257 melanoma
[49] = system: SW-620 colon
[50] = system: NCI-H460 lung
[51] = system: HOP-18 NSCLC
[52] = system: MOLT-4 leukemia
[53] = system: RXF 393 renal
[54] = system: SR leukemia
[55] = system: DMS 273 small cell lung
[56] = system: HCC-2998 colon
[57] = system: XF 498 CNS

Cn1c(O)c(C(=O)Nc2cccs2)c(=O)[nH]c1=S
TGI [1]: 31.3 µM
TGI [2]: 43 µM
TGI [3]: 40.6 µM
TGI [4]: 42.6 µM
TGI [5]: 69.5 µM
TGI [6]: 29 µM
TGI [7]: 79.6 µM
TGI [8]: 27.6 µM
TGI [9]: 30.3 µM
TGI [10]: 72.5 µM
TGI [11]: > 100 µM
TGI [12]: 26.5 µM
TGI [13]: 34 µM
TGI [14]: > 100 µM
TGI [15]: 33.4 µM
TGI [16]: 29.5 µM
TGI [17]: 41.8 µM
TGI [18]: 40.8 µM
TGI [19]: 34.1 µM
TGI [20]: 49.1 µM
TGI [21]: 52 µM
TGI [22]: 38.1 µM
TGI [23]: 43.7 µM
TGI [24]: 47.7 µM
TGI [25]: 47.8 µM
TGI [26]: 28 µM
TGI [27]: 61.6 µM
TGI [28]: 44.3 µM
TGI [29]: > 100 µM
TGI [30]: 35.9 µM
TGI [31]: 74.6 µM
TGI [32]: 49.8 µM
TGI [33]: 64.3 µM
TGI [34]: 41.9 µM
TGI [35]: 26.9 µM
TGI [36]: 31 µM
TGI [37]: 27.2 µM
TGI [38]: 66.1 µM
TGI [39]: 48.3 µM
TGI [40]: 30.4 µM
TGI [41]: 35.8 µM
TGI [42]: 66.2 µM
TGI [43]: 33.4 µM
TGI [44]: 34.1 µM
TGI [45]: 73.9 µM
TGI [46]: 45 µM
TGI [47]: 30.2 µM
TGI [48]: 32.6 µM
TGI [49]: 87.6 µM
TGI [50]: 43.7 µM
TGI [51]: 8.34 µM
TGI [52]: 61.7 µM

CC(C)=CCCC1(C)C=Cc2c(c(C)cc3c2[nH]c2cc(O)ccc23)O1 (configuration not stated)
TGI [2]: > 25 µM
TGI [3]: > 25 µM
TGI [4]: > 25 µM
TGI [5]: > 25 µM
TGI [6]: > 25 µM
TGI [7]: > 25 µM
TGI [53]: > 25 µM
TGI [8]: > 25 µM
TGI [9]: > 25 µM
TGI [10]: > 25 µM
TGI [11]: > 25 µM
TGI [12]: > 25 µM
TGI [13]: > 25 µM
TGI [14]: > 25 µM
TGI [15]: > 25 µM
TGI [16]: > 25 µM
TGI [54]: > 25 µM
TGI [17]: > 25 µM
TGI [55]: > 25 µM
TGI [18]: > 25 µM
TGI [19]: > 25 µM
TGI [20]: > 25 µM
TGI [21]: > 25 µM
TGI [23]: > 25 µM
TGI [56]: > 25 µM
TGI [27]: > 25 µM
TGI [28]: > 25 µM
TGI [29]: > 25 µM
TGI [30]: > 25 µM
TGI [57]: > 25 µM
TGI [31]: > 25 µM
TGI [32]: > 25 µM
TGI [33]: > 25 µM
TGI [34]: > 25 µM
TGI [35]: > 25 µM
TGI [36]: > 25 µM
TGI [37]: > 25 µM
TGI [38]: > 25 µM
TGI [39]: > 25 µM
TGI [40]: > 25 µM
TGI [42]: > 25 µM
TGI [43]: > 25 µM
TGI [44]: > 25 µM
TGI [45]: > 25 µM
TGI [46]: > 25 µM
TGI [47]: > 25 µM
TGI [49]: > 25 µM
TGI [50]: > 25 µM
TGI [51]: > 25 µM
TGI [52]: > 25 µM
